Experimental data: publication PMC8983860, “A Novel Small Molecular Inhibitor of DNMT1 Enhances the Antitumor Effect of Radiofrequency Ablation in Lung Squamous Cell Carcinoma Cells” (Frontiers in Pharmacology, 2022)

Tests used:
DNMT-1 = DNMT-1 (Homo sapiens, UniProt P26358); experiment: In vitro activity test on DNMT-1; assay type: biochemical; conditions: for IC50: in vitro activity on DNMT1, Table 1; for In vitro activity (IC50) compared to ZINC15602870: comparison in words
Method: AutoDock Vina was used to screen the 72,000 compounds using the ligands in the original protein as the docking template. […] Continuous fine screening was performed with AutoDock Vina to obtain the top 50 compounds which were then analyzed by cluster analysis. Next, the representative compounds with large structural differences were empirically selected. Finally, a total of 12 representative compounds were selected (see supporting document), purchased from Medrige or synthesized by ourselves.
The side chains of compounds 03 and 07 were then introduced onto position R2 of the new parent ring (Table 1). In vitro activity tests were then performed as previously described ([Datta et al., 2009]).

Notch pathway = experiment: Expression of Notch pathway-related factors (qPCR) and methylation of the miR-27-3p promoter (BSP-NGS) after iDNMT treatment; assay type: cell-based, human
Method: The genomic DNA samples from the clinical specimens, tumor tissues, and cultured cells were extracted and isolated using the DNeasy Blood & Tissue Kit (Cat No. 69504; QIAGEN, Hilden, Germany) and treated with the EpiTect Bisulfite Kit (Cat No. 59104; QIAGEN) according to the manufacturer’s instructions. Next, the polymerase chain reactions (PCRs) were performed using DNA samples and a high-fidelity polymerase, Platinum II Hot-Start PCR Master Mix (Cat No. 14000012; Thermo Fisher Scientific), to amplify the selected promoter region (chr19: 13836440-13838517, negative chain [-], the selected promoter region of has-pre-miR-27) of miR-27 with CpG islands (chr19: 13,835,599-13,835,325, negative chain [-]). […] Following PCR experiments, the products were directly sequenced by using Ion Torrent PGM, and the methylation rates were calculated as previously described ([Ma et al., 2020]; [Wang et al., 2021b]; [He et al., 2021]).
For quantitative PCR (qPCR) analysis, the total RNA was extracted from the clinical specimens, LSCC cells, or subcutaneous tumor tissues as described by Ma et al. (2020) before reverse transcription to generate cDNA. The expression of DNMT1, Notch-related factors, and has-pre-miR-27 was examined by real-time quantitative fluorescence PCR (RT-PCR/qPCR) ([Ma et al., 2016]; [Yang et al., 2020]; [Du et al., 2021]) with β-actin as the loading control. […]

H226 cells = experiment: Subcellular fractionation and Western blotting of H226 cells; assay type: cell-based, human; conditions: immunoblotting
Method: The H226 cells were cultured in Dulbecco’s modified Eagle’s medium (DMEM) with 10% (v/v) fetal bovine serum (FBS). The cells were transfected with plasmids or treated with the appropriate concentration of iDNMT [low dose (0.1 μmol/L), medium dose (1 μmol/L), and high dose (10 μmol/L)]. The H226 cells were then harvested for subcellular fractionation assays as previously described. The H226 cells were split into the nuclear subfraction or the cytoplasmic subfraction ([Lu et al., 2013]; [Yang et al., 2013]; [Feng et al., 2018b]). NICD, PSEN-1, and DNMT1 expression levels were examined in the subfractions by immunoblotting using antibodies from Santa Cruz (United States) or Abcam (United Kingdom). We chose β-actin and lamin A as the cytoplasmic and nuclear loading controls or indicators, respectively ([Lu et al., 2013]; [Yang et al., 2013]; [Feng et al., 2018b]).
To further confirm the specificity of iDNMT on the Notch pathway, we analyzed the cytoplasm–nuclear subfraction using immunoblotting. […] The methylation rates of the miR-27-3p′s promoter region and expression level of DNMT-1 or miR-27-3p in cell samples of Figure 5B are shown in Supplementary Figure S1. Therefore, iDNMT represses PSEN-1 expression to inhibit cleavage of Notch, thus inhibiting NICD accumulation in H226 cells.

H226 LSCC cells = experiment: Subcutaneous H226 LSCC tumors in nude mice, oral iDNMT with or without RFA; assay type: in vivo
Method: The antitumor efficacy of iDNMT, RFA, and iDNMT1 + RFA on LSCC tissues was examined in nude mice. Nude mice aged 5 weeks were obtained from the Si-Bei-Fu Corporation (Beijing, China), and they were fed under specific pathogen-free conditions. The H226 cells (approximately 5 × 10^6 cells/animal), which were transfected with plasmids, were subcutaneously injected into nude mice to generate tumor tissues ([Feng et al., 2019]; [Sun et al., 2019]). The dimensions of these tumors were measured using a Vernier caliper every 7 days. Tumor volumes were calculated according to the following formula: tumoral width × tumoral width × tumoral length/2 ([Feng et al., 2019]; [Sun et al., 2019]). For RFA treatment or RFA + iDNMT treatment, RFA of the LSCC subcutaneous tumors was performed using a thyroid-ablation needle (Cat No.: UniBlate 700-103587 17G, RITA Company, Crystal Lake, IL, United States) when the tumoral volume reached ∼500 mm^3. The conditions for RFA were as follows: 2 min RFA-duration with a series of different temperatures, 65, 60, or 55°C. In addition, iDNMT was administered orally at 10, 5, 2, or 1 mg/kg ([Xie et al., 2018a]; [Xie et al., 2018b]; [Zhou et al., 2021]). The formulation of iDNMT and the oral administration were performed as previously described ([Zou et al., 2021a]; [Zou et al., 2021b]; [Wang et al., 2021c]; [Jie et al., 2021]). Subcutaneous tumors were separated from the animals, and the weights of these tumors were measured using a precision-balance.

DNMT-1, sequence (P26358 whole entry): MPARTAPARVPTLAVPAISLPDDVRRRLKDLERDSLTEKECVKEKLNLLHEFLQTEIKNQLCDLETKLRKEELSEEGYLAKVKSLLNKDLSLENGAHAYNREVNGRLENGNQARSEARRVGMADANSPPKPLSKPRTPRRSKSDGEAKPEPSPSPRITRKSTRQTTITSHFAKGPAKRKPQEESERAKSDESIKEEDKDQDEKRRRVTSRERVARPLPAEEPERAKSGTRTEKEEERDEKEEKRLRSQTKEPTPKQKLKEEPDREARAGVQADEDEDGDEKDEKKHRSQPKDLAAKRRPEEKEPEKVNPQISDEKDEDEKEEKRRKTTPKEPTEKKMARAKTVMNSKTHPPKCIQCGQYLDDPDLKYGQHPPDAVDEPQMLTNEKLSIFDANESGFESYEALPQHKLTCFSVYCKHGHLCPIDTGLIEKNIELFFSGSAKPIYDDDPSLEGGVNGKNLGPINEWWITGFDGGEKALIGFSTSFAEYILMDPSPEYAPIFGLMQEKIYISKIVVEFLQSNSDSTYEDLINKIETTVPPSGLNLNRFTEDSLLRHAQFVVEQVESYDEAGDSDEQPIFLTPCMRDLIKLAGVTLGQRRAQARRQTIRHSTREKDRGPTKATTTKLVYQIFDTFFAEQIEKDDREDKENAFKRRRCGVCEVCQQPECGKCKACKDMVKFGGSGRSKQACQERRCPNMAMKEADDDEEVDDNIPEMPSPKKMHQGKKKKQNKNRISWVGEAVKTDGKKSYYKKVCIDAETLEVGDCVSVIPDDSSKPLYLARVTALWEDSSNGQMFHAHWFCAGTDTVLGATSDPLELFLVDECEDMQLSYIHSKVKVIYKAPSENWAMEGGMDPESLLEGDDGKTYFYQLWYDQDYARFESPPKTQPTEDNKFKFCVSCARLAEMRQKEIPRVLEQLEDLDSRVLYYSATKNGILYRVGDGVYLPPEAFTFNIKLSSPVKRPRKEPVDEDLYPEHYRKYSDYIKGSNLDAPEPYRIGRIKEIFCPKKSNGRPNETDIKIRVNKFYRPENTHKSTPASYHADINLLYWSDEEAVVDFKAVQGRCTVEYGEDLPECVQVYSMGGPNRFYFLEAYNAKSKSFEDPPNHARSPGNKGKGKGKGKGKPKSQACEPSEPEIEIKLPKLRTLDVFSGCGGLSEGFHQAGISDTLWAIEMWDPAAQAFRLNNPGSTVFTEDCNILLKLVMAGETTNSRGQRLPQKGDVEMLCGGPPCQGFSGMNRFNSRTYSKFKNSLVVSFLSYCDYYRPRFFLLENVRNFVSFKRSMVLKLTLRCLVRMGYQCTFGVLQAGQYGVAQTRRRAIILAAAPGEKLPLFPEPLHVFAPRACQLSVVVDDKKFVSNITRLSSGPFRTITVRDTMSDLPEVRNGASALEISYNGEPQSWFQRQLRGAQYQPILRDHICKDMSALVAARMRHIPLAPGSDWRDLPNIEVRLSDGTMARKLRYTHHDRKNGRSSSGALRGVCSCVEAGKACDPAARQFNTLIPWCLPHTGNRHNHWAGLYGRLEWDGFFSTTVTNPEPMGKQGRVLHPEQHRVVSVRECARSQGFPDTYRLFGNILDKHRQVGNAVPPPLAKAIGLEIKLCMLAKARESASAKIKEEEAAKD

Q: With COc1cc(C(=O)Nc2nc(SCC3OCCO3)n[nH]2)ccc1C [Compound 08] as the compound, how does the IC50 (DNMT-1) read?
A: 30 µM

Q: CCOC(=O)CCCSc1n[nH]c(NC(=O)c2ccc(C)c(OC)c2)n1 [Compound 09] was tested. Which IC50 (DNMT-1) did it give?
A: 22 µM

Q: Which results are given for COc1cc(C(=O)Nc2ccc(C(=O)N3CCN(C(C)C)CC3)cc2)ccc1C [Compound 02]?
A: In vitro activity (IC50) compared to ZINC15602870 (DNMT-1): improved IC50 values; IC50 (DNMT-1): 15 µM

Q: With CCC(Sc1n[nH]c(NC(=O)c2ccc(OC)c(OC)c2)n1)C(=O)OC (stereo not shown) [Compound 11] as the compound, how does the IC50 (DNMT-1) read?
A: 6 µM

Q: For COC(=O)CCSc1n[nH]c(NC(=O)c2ccc(C)c(OC)c2)n1 [Compound 05], which IC50 (DNMT-1) is on record?
A: 18 µM

Q: COc1cc(C(=O)Nc2ccc(C(C)=O)cc2)ccc1C [Compound 01, N-(4-acetylphenyl)-3-methoxy-4-methylbenzamide] was tested. Which IC50 (DNMT-1) did it give?
A: 20 µM

Q: With COCCCSc1n[nH]c(NC(=O)c2ccc(C)c(OC)c2)n1 [Compound 06] as the compound, how does the IC50 (DNMT-1) read?
A: 38 µM

Q: CCC(Sc1n[nH]c(NC(=O)c2ccc(C)c(OC)c2)n1)C(=O)OC (stereo not shown) [Compound 07] was tested. Which IC50 (DNMT-1) did it give?
A: 9 µM

Q: COc1cc(C(=O)Nc2ccc(C(=O)N3CCN(C(C)=O)CC3)cc2)ccc1C [Compound 03] was tested. Which “In vitro activity (IC50) compared to ZINC15602870” value (DNMT-1) did it give?
A: improved IC50 values

Q: And the IC50 (DNMT-1)?
A: 7 µM

Q: What does the source list for COc1ccc(C(=O)Nc2ccc(C(=O)N3CCN(C(C)=O)CC3)cc2)cc1OC [Compound 10]?
A: IC50 (DNMT-1): 4.71 µM; methylation of the miR-27-3p promoter region (Notch pathway; Figure 5A): decreased methylation of the miR-27-3p promoter region; expression of PSEN-1 or downstream factors of the Notch pathway (Notch pathway; N-cadherin, vimentin, survivin, cIAP-1, cIAP-2, Figure 5A): inhibit the expression of PSEN-1 or downstream factors of the Notch pathway; DNMT-1 expression (H226 cells; Figure 5B): no effects on DNMT-1 expression; PSEN-1 expression (H226 cells; Figure 5B): inhibited PSEN-1 expression; accumulation of NICD in the nuclear subfraction (H226 cells; iDNMT low 0.1, medium 1, high 10 μmol/L, dose-dependent): reduced accumulation of NICD in the nuclear subfraction; LSCC tumor volumes (H226 LSCC cells; 2 mg/kg iDNMT oral combined with 2 min RFA at 55°C): significantly induced shrinkage of LSCC tumor volumes; EMT process of LSCC cells in subcutaneous tissues (H226 LSCC cells; iDNMT with RFA 55°C for 2 min): inhibited the EMT process; miR-27-3p expression in tumor tissues (H226 LSCC cells; oral, 2 mg/kg, leads to inhibition of the Notch pathway): significantly upregulated miR-27-3p expression; subcutaneous growth of H226 cells (antitumor activity) (H226 LSCC cells; oral, iDNMT alone, 2 mg/kg): weak antitumor activity; subcutaneous growth of H226 cells (H226 LSCC cells; oral, iDNMT alone, 5 mg/kg): most significant inhibition; subcutaneous growth of H226 cells (H226 LSCC cells; oral, iDNMT alone, 10 mg/kg): most significant inhibition

Q: With COc1cc(C(=O)Nc2ccc(S(=O)(=O)NC(=O)c3ccccc3)cc2)ccc1C [Compound 04] as the compound, how does the “In vitro activity (IC50) compared to ZINC15602870” value (DNMT-1) read?
A: improved IC50 values

Q: What about the IC50 (DNMT-1) of the same compound?
A: 13 µM
